# Source: PubChem BioAssay AID328 (DTP/NCI, 2004)
# “And” between values parts separate entries of the source, which are not always exact repeats. Equal values may be shown once. Inconclusive results and toxic doses are left out. Residues, ends and D or L forms follow the SMILES beside them.
# Tested on: BDF1 mice, P388 leukemia ip, median survival T/C
# Test: NCI In Vivo Anticancer Drug Screen. Data for tumor model P388 Leukemia (intraperitoneal) in B6D2F1 (BDF1) mice
# Conditions: endpoint: median survival time, higher = longer survival
# Method in brief: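 Steps: implant the tumour, treat one group with compound and another with vehicle, record survival, then divide treated by control.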
# [1] = dose: 100.0 mg/kg/injection, schedule: Q04DX003 (ip), vehicle: Klucel (hydroxypropylcellulose) (HPC)
# [2] = dose: 12.5 mg/kg/injection, schedule: Q01DX009 (ip), vehicle: Klucel (hydroxypropylcellulose) (HPC)
# [3] = dose: 25.0 mg/kg/injection, schedule: Q01DX009 (ip), vehicle: Klucel (hydroxypropylcellulose) (HPC)
# [4] = dose: 200.0 mg/kg/injection, schedule: Q04DX003 (ip), vehicle: Klucel (hydroxypropylcellulose) (HPC)
# [5] = dose: 400.0 mg/kg/injection, schedule: Q04DX003 (ip), vehicle: Klucel (hydroxypropylcellulose) (HPC)
# [6] = dose: 100.0 mg/kg/injection, schedule: Q01DX009 (ip), vehicle: saline with Tween-80
# [7] = dose: 100.0 mg/kg/injection, schedule: Q04DX003 (ip), vehicle: saline with Tween-80
# [8] = dose: 200.0 mg/kg/injection, schedule: Q01DX009 (ip), vehicle: saline with Tween-80
# [9] = dose: 200.0 mg/kg/injection, schedule: Q04DX003 (ip), vehicle: saline with Tween-80
# [10] = dose: 400.0 mg/kg/injection, schedule: Q01DX009 (ip), vehicle: saline with Tween-80
# [11] = dose: 400.0 mg/kg/injection, schedule: Q04DX003 (ip), vehicle: saline with Tween-80
# [12] = dose: 50.0 mg/kg/injection, schedule: Q01DX005 (ip), vehicle: saline
# [13] = dose: 100.0 mg/kg/injection, schedule: Q01DX005 (ip), vehicle: saline
# [14] = dose: 200.0 mg/kg/injection, schedule: Q01DX005 (ip), vehicle: saline
# [15] = dose: 25.0 mg/kg/injection, schedule: Q01DX009 (ip), vehicle: saline with Tween-80
# [16] = dose: 50.0 mg/kg/injection, schedule: Q01DX009 (ip), vehicle: saline with Tween-80
smiles,measurement,setting,value
O=c1cc(CCl)[nH]nc1CCl,T/C,"dose: 14.5 mg/kg/injection, schedule: Q04DX003 (ip), vehicle: saline with Tween-80",166 % of control
same,T/C,"dose: 22.0 mg/kg/injection, schedule: Q04DX003 (ip), vehicle: saline with Tween-80",159 % of control
same,T/C,"dose: 33.0 mg/kg/injection, schedule: Q04DX003 (ip), vehicle: saline with Tween-80",151 % of control
same,T/C,"dose: 75.0 mg/kg/injection, schedule: Q04DX003 (ip), vehicle: saline with Tween-80",98 % of control
NOCc1ccccc1CON,T/C,"dose: 37.5 mg/kg/injection, schedule: Q04DX003 (ip), vehicle: saline",108 % of control
same,T/C,"dose: 75.0 mg/kg/injection, schedule: Q04DX003 (ip), vehicle: saline",95 % of control
same,T/C,"dose: 150.0 mg/kg/injection, schedule: Q04DX003 (ip), vehicle: saline",100 % of control
O=C1N(Cl)C(=O)C(c2ccccc2)(c2ccc(F)cc2)N1Cl (centres undefined),T/C,"dose: 25.0 mg/kg/injection, schedule: Q04DX003 (ip), vehicle: Klucel (hydroxypropylcellulose) (HPC)",87 % of control
same,T/C,"dose: 50.0 mg/kg/injection, schedule: Q04DX003 (ip), vehicle: Klucel (hydroxypropylcellulose) (HPC)",100 % of control
same,T/C,[1],91 % of control
O=C1c2ccccc2S(=O)(=O)N1CCCBr,T/C,[2],95 % of control
same,T/C,[3],110 % of control
same,T/C,"dose: 50.0 mg/kg/injection, schedule: Q01DX009 (ip), vehicle: Klucel (hydroxypropylcellulose) (HPC)",105 % of control
same,T/C,[1],95 % of control
same,T/C,[4],95 % of control
same,T/C,[5],95 % of control
ClCCN(CCCl)CCCN1c2ccccc2Sc2ccc(Cl)cc21,T/C,"dose: 3.12 mg/kg/injection, schedule: Q04DX003 (ip), vehicle: saline",97 % of control
same,T/C,"dose: 6.25 mg/kg/injection, schedule: Q04DX003 (ip), vehicle: saline with Tween-80",154 % of control
same,T/C,"dose: 6.25 mg/kg/injection, schedule: Q04DX003 (ip), vehicle: saline",97 % of control
same,T/C,"dose: 12.5 mg/kg/injection, schedule: Q04DX003 (ip), vehicle: saline",94 % of control
Nc1ccccc1CCc1ccccc1N,T/C,[6],104 % of control
same,T/C,[7],95 % of control
same,T/C,[8],100 % of control
same,T/C,[9],95 % of control
same,T/C,[10],100 % of control
same,T/C,[11],108 % of control
OC1C=CC2C3C=CC(C3)C12 (centres undefined),T/C,"dose: 100.0 mg/kg/injection, schedule: Q04DX003 (ip), vehicle: saline",96 % of control
same,T/C,"dose: 200.0 mg/kg/injection, schedule: Q04DX003 (ip), vehicle: saline",92 % of control
same,T/C,"dose: 400.0 mg/kg/injection, schedule: Q04DX003 (ip), vehicle: saline",103 % of control
COc1ccc(C(c2ccc(OC)cc2)C(Cl)(Cl)Cl)cc1,T/C,"dose: 100.0 mg/kg/injection, schedule: Q01DX001 (ip), vehicle: Klucel (hydroxypropylcellulose) (HPC)",104 % of control
same,T/C,"dose: 200.0 mg/kg/injection, schedule: Q01DX001 (ip), vehicle: Klucel (hydroxypropylcellulose) (HPC)",100 % of control
same,T/C,"dose: 400.0 mg/kg/injection, schedule: Q01DX001 (ip), vehicle: Klucel (hydroxypropylcellulose) (HPC)",100 % of control
CC(NC(=O)C(N)C(C)C)C(=O)O (centres undefined),T/C,[12],92 % of control
same,T/C,[13],97 % of control
same,T/C,[14],92 % of control
Cc1c(CNc2ccc(C(=O)NC(CC(=O)O)CC(=O)O)cc2)ccc2nc(N)nc(N)c12,T/C,"dose: 0.19 mg/kg/injection, schedule: Q01DX009 (ip), vehicle: saline",165 % of control
same,T/C,"dose: 0.37 mg/kg/injection, schedule: Q01DX009 (ip), vehicle: saline",215 % of control
same,T/C,"dose: 0.75 mg/kg/injection, schedule: Q01DX009 (ip), vehicle: saline",100 % of control
same,T/C,"dose: 1.5 mg/kg/injection, schedule: Q01DX009 (ip), vehicle: saline",95 % of control
same,T/C,"dose: 2.0 mg/kg/injection, schedule: Q01DX009 (ip), vehicle: saline",110 % of control
S=c1cc(-c2ccco2)ss1,T/C,[15],112 % of control
same,T/C,[16],95 % of control
same,T/C,[6],98 % of control
same,T/C,[7],110 % of control
same,T/C,[8],102 % of control
same,T/C,[9],100 % of control
same,T/C,[10],107 % of control
same,T/C,[11],101 % of control
O=[N+]([O-])c1ccc(S(=O)c2ccc([N+](=O)[O-])c3nonc23)cc1 (centres undefined),T/C,"dose: 15.0 mg/kg/injection, schedule: Q01DX009 (ip), vehicle: saline with Tween-80",90 % of control
same,T/C,"dose: 30.0 mg/kg/injection, schedule: Q01DX009 (ip), vehicle: saline with Tween-80",97 % of control
C[Si](C)(C)OC/C=C\CO[Si](C)(C)C,T/C,"dose: 100.0 mg/kg/injection, schedule: Q01DX009 (ip), vehicle: saline",100 % of control
same,T/C,"dose: 200.0 mg/kg/injection, schedule: Q01DX009 (ip), vehicle: saline",108 % of control
same,T/C,"dose: 400.0 mg/kg/injection, schedule: Q01DX009 (ip), vehicle: saline",108 % of control
CCOC(=O)N1CCN(CCCOc2ccc(Cl)cc2Cc2ccccc2)CC1,T/C,[16],96 % of control
same,T/C,[6],96 % of control
same,T/C,[8],105 % of control
O=C1OC(O)(c2ccccc2)C(c2ccccc2)=C1c1ccccc1 (centres undefined),T/C,[16],119 % of control
same,T/C,[6],110 % of control
same,T/C,[8],108 % of control
C/C=C/C=C/C(=O)NO,T/C,"dose: 100.0 mg/kg/injection, schedule: Q04DX003 (ip), vehicle: alcohol",113 % of control
same,T/C,"dose: 200.0 mg/kg/injection, schedule: Q01DX009 (ip), vehicle: Klucel (hydroxypropylcellulose) (HPC)",91 % of control
same,T/C,"dose: 200.0 mg/kg/injection, schedule: Q04DX003 (ip), vehicle: alcohol",100 % of control
same,T/C,"dose: 400.0 mg/kg/injection, schedule: Q01DX009 (ip), vehicle: Klucel (hydroxypropylcellulose) (HPC)",116 % of control
same,T/C,"dose: 400.0 mg/kg/injection, schedule: Q04DX003 (ip), vehicle: alcohol",104 % of control
C[n+]1ccccc1/C=C/c1cccc(O)c1,T/C,"dose: 3.12 mg/kg/injection, schedule: Q01DX009 (ip), vehicle: Klucel (hydroxypropylcellulose) (HPC)",96 % of control
same,T/C,"dose: 6.25 mg/kg/injection, schedule: Q01DX009 (ip), vehicle: Klucel (hydroxypropylcellulose) (HPC)",96 % of control
same,T/C,[2],102 % of control
same,T/C,[3],102 % of control
CC(C)C(N)C(=O)NC(Cc1ccc(O)cc1)C(=O)NC(C(=O)O)C(C)C (stereo not drawn) (H-Val-Tyr-Val-OH; configuration not given here),T/C,[12],89 % of control
same,T/C,[13],97 % of control
same,T/C,[14],92 % of control
N#Cc1nc(C#N)c(Sc2ccccc2)c(Sc2ccccc2)c1Sc1ccccc1,T/C,"dose: 12.5 mg/kg/injection, schedule: Q01DX009 (ip), vehicle: saline with Tween-80",101 % of control and 110 % of control
same,T/C,[15],100 % of control and 103 % of control
same,T/C,[16],121 % of control and 122 % of control
NC(N)=Nc1ccc(C(=O)Oc2ccc([N+](=O)[O-])cc2CN2CCCCC2)cc1,T/C,"dose: 0.78 mg/kg/injection, schedule: Q01DX009 (ip), vehicle: water",101 % of control
same,T/C,"dose: 0.78 mg/kg/injection, schedule: Q04DX003 (ip), vehicle: water",100 % of control
same,T/C,"dose: 1.56 mg/kg/injection, schedule: Q01DX009 (ip), vehicle: water",93 % of control
same,T/C,"dose: 1.56 mg/kg/injection, schedule: Q04DX003 (ip), vehicle: water",105 % of control
same,T/C,"dose: 3.12 mg/kg/injection, schedule: Q01DX009 (ip), vehicle: water",100 % of control
same,T/C,"dose: 3.12 mg/kg/injection, schedule: Q04DX003 (ip), vehicle: water",113 % of control
same,T/C,"dose: 6.25 mg/kg/injection, schedule: Q01DX009 (ip), vehicle: water",104 % of control
same,T/C,"dose: 6.25 mg/kg/injection, schedule: Q04DX003 (ip), vehicle: water",104 % of control
same,T/C,"dose: 12.5 mg/kg/injection, schedule: Q04DX003 (ip), vehicle: water",95 % of control
CN(C)c1ccc(C(C[N+](=O)[O-])(c2ccc(N(C)C)cc2)c2ccc(N(C)C)cc2)cc1,T/C,[1],100 % of control
same,T/C,[4],90 % of control
same,T/C,[5],100 % of control
O=C(Nc1ccc2ccccc2c1)c1ccccc1,T/C,"dose: 100.0 mg/kg/injection, schedule: Q01DX001 (ip), vehicle: saline sonified",95 % of control
same,T/C,"dose: 200.0 mg/kg/injection, schedule: Q01DX001 (ip), vehicle: saline sonified",100 % of control
same,T/C,"dose: 400.0 mg/kg/injection, schedule: Q01DX001 (ip), vehicle: saline sonified",100 % of control
